# Data as given in patent US7064133B2, “Quinoline derivatives process of synthesis and medicaments containing these derivatives” (Bioalliance Pharma, priority 2001, dated 2006).
# Key:
# Format in all cases: cell-based
# HeLa = experiment: Cytotoxicity, MTT to formazan test, adherent cells; details: at 500 μM
# Experimental: (§1) The toxicity of the compounds is evaluated by a test of biotransformation of MTT to formazan by cellular mitochondrial dehydrogenases.
# CEM = experiment: Cytotoxicity, MTT to formazan test, cells in suspension; details: at 500 μM
# Experimental: as §1
# [1] = test system: integration of viral DNA into the host genome; experiment: Inhibition of the integration of viral DNA into the host genome (PCR, densitometry) in infected CEM cells; details: 24 hours
# Experimental: This test consists in bringing CEM cells into contact with the supernatant of infected cells containing the infectious virions. After 2 hours, the cells are washed and placed again in RPMI medium containing the compound according to the invention for 24 hours (BioA53). The DNA of the cells is then extracted using a genomic DNA preparation kit (QiaBlood, Qiagen™). This DNA is the target for PCR amplifications aimed at evaluating, on the one hand, the quantity of total viral DNA present in the solution, and, on the other hand, the quantity of viral DNA integrated into the cellular genome. The latter amplification takes place in two stages: the first step uses a PCR primer homologous to a sequence of the retroviral DNA; the second primer is homologous to the repetitive genomic Alu sequences. The second stage is a nested PCR which makes it possible to visualize the retroviral DNA.
# The quantity of DNA is evaluated by densitometry after separation of the amplification products on agarose gel.
Compound,cytotoxicity (MTT) (HeLa),cytotoxicity (MTT) (CEM),"decrease in the quantity of DNA integrated ([1]; 50 μM, CEM cells)","inhibition of DNA integrated ([1]; 100 μM, CEM cells)",quantity of total viral DNA ([1]; treatment of CEM cells with the compound)
"O=C(NCc1ccc(O)c(O)c1)c1ccc2ccc(C(=O)[O-])c(O)c2n1.[Na+] [BioA53, sodium 2-(3,4-dihydroxybenzylcarbamoyl)-8-hydroxyquinoline-7-carboxylate]",lacks cytotoxicity,lacks cytotoxicity,at least 80%,inhibition of the entire DNA integrated,not affected
"O=C(NCc1ccc(O)cc1O)c1ccc2ccc(C(=O)[O-])c(O)c2n1.[Na+] [BioA163, sodium 2-(2,4-dihydroxybenzylcarbamoyl)-8-hydroxyquinoline-7-carboxylate]",lacks cytotoxicity,lacks cytotoxicity,–,–,–
